Laboratory results as given in US8119630B2 (Arrow Therapeutics Limited, priority 2002, dated 2012).

Legend:
RSV = test: XTT assay, RSV-infected Hep-2 cells; type: cell-based, Respiratory Syncytial Virus (RSV); details: Table 2, Examples 75 to 82 and 125 to 184, Hep-2 cells infected with RSV, 6 days at 37° C.
Description: Examples 75 to 82 and 125 to 184 were tested according to the protocol described below.
(§1) The inner 60 wells of 96 well tissue culture plates were seeded with Hep-2 cells at 4×10^4 cells/well for compound activity and toxicity studies in 100 μl of medium and incubated at 37° C. overnight or until nearing confluency.
(§2) Cells were infected with 25 μl RSV previously titrated to give 80% cell kill. To each well 25 μM of test compound were added. The final DMSO concentration was 0.5%. Some 200 μl of sterile distilled water were added to the outer wells of the plate and incubated at 37° C. for 6 days. Some 0.25 μl/ml PMS were added to stock […] solution, final conc. 25 μM PMS. Then 25 μl warmed XTT/PMS solution were added to each well and incubated for 1 hour at 37° C.
Maximum OD450nm reading (uninfected, untreated control cells) corresponded to 100% inhibition. Minimum OD450nm readings (infected control cells) corresponded to 0% inhibition. Log 10 concentration was plotted against OD450nm and IC50 values were calculated from either reading 50% value from graph or using regression analysis.

Hep-2 cells = test: Toxicity studies (XTT), Hep-2 cells; type: cell-based; set-up: TC50 (6d): unit not given beside the values; details: for TC50 (2d): Table 2, Examples 75 to 82 and 125 to 184, 2d; for TC50 (6d): Table 2, Examples 75 to 82 and 125 to 184, 6d, in µM
Description: as §1
as §2, with “Some 200 μl of sterile distilled water were added to the outer wells of the plate and incubated at 37° C. for 6 days.” left out

[1] = human respiratory syncytial virus, 144 h

Molecule | IC50 (RSV) [µM] | TC50 (2d) (Hep-2 cells) [µM] | TC50 (6d) (Hep-2 cells) | IC50 (RSV; [1]) [µM]
Cyclohexanecarboxylic acid [5-(3-methoxy-phenyl)-2-oxo-5-phenyl-2,3-dihydro-1H-benzo[e][1,4]diazepin-3-yl]-amide [Example 165] | 2 | > 100 | >100 | 
CN(C)c1ccc(C(=O)NC2N=C(c3ccccc3)c3ccccc3NC2=O)cn1 (stereo not shown) [Example 174, 6-Dimethylamino-N-(2-oxo-5-phenyl-2,3-dihydro-1H-benzo[e][1,4]diazepin-3-yl)-nicotinamide] |  |  | 60 | 6.9
O=C(NC1N=C(c2ccccc2)c2ccccc2NC1=O)C(=O)c1cccs1 (stereo not shown) [Example 184, 2-Oxo-N-(2-oxo-5-phenyl-2,3-dihydro-1H-benzo[e][1,4]diazepin-3-yl)-2-thiophene-2-yl-acetamide] |  | > 50 |  | 9.5
O=C(Nc1cccc(Cl)c1)NC1N=C(c2ccccc2)c2ccccc2NC1=O (stereo not shown) [Example 131] | 9.6 |  | >50 | 
O=C(NC1N=C(c2ccccc2)c2ccccc2NC1=O)c1ccccc1F (stereo not shown) [Example 135, 2-Fluoro-N-(2-oxo-5-phenyl-2,3-dihydro-1H-benzo[e][1,4]diazepin-3-yl)-benzamide] |  |  | >50 | 9.5
O=C(NC1N=C(c2ccccc2)c2ccccc2NC1=O)c1cc(F)cc2c1OCOC2 (stereo not shown) [Example 77a, 6-Fluoro-4H-benzo[1,3]dioxine-8-carboxylic acid (2-oxo-5-phenyl-2,3-dihydro-1H-benzo[e][1,4]diazepin-3-yl)-benzamide] | 4.6 |  | >50 | 
Thiophene-2-carboxylic acid [5-(3-methoxy-phenyl)-2-oxo-5-phenyl-2,3-dihydro-1H-benzo[e][1,4]diazepin-3-yl]-amide [Example 164] | 4 | 100 | 100 | 
COc1cc(SC)ccc1C(=O)NC1N=C(c2ccccc2)c2ccccc2NC1=O (stereo not shown) [Example 132, 2-Methoxy-4-methylsulfanyl-N-(2-oxo-5-phenyl-2,3-dihydro-1H-1-benzo[e][1,4]diazepin-3-yl)-benzamide] | 6.3 |  | >50 | 
O=C(N[C@H]1N=C(c2ccccc2)c2ccccc2NC1=O)c1cc(Br)c(Br)o1 [Example 179, (S)-4,5-Dibromo-furan-2-carboxylic acid (2-oxo-5-phenyl-2,3-dihydro-1H-benzo[e][1,4]diazepin-3-yl)-amide] |  |  | >50 | 3.9
COc1cc([N+](=O)[O-])ccc1C(=O)N(C)C1N=C(c2ccccc2)c2ccccc2NC1=O (stereo not shown) [Example 147, 2-Methoxy-N-methyl-4-nitro-N-(2-oxo-5-phenyl-2,3-dihydro-1H-benzo[e][1,4]diazepin-3-yl)-benzamide] |  | > 50 |  | 15.9
O=C(Nc1c(F)cccc1F)NC1N=C(c2ccccc2)c2ccccc2NC1=O (stereo not shown) [Example 127, 1-(2,6-Difluoro-phenyl)-3-(2-oxo-5-phenyl-2,3-dihydro-1H-benzo[e][1,4]diazepin-3-yl)-urea] |  |  | >50 | 9.4
N-[5-(3-Chloro-phenyl)-2-oxo-5-phenyl-2,3-dihydro-1H-benzo[e][1,4]diazepin-3-yl]isonicotinamide [Example 160] | 10 | > 100 | >100 | 
COc1cc2ccccc2cc1C(=O)NC1N=C(c2ccccc2)c2ccccc2NC1=O (stereo not shown) [Example 82a, 3-Methoxy-naphthalene-2-carboxylic acid (2-oxo-5-phenyl-2,3-dihydro-1H-benzo[e][1,4]diazepin-3-yl)-amide] |  |  | >50 | 6.7
O=C(Nc1cccs1)NC1N=C(c2ccccc2)c2ccccc2NC1=O (stereo not shown) [Example 170, 1-(2-Oxo-5-phenyl-2,3-dihydro-1H-benzo[e][1,4]diazepin-3-yl)-3-thiophene-2-yl-urea] |  |  | >50 | 3.4
O=C(N[C@H]1N=C(c2ccccc2)c2ccccc2NC1=O)c1cc(F)cc2c1OCOC2 [Example 77b, (S)-6-Fluoro-4H-benzo[1,3]dioxine-8-carboxylic acid (2-oxo-5-phenyl-2,3-dihydro-1H-benzo[e][1,4]diazepin-3-yl)-amide] |  |  | 33.2 | 0.5
COc1cc(N)c(Cl)cc1C(=O)NC1N=C(c2ccccc2)c2ccccc2NC1=O (stereo not shown) [Example 140, 4-Amino-5-chloro-2-methoxy-N-(2-oxo-5-phenyl-2,3-dihydro-1H-benzo[e][1,4]diazepin-3-yl)-benzamide] |  |  | 68 | 2.5

Molecule | IC50 (RSV) [µM] | TC50 (2d) (Hep-2 cells) [µM] | TC50 (6d) (Hep-2 cells) | IC50 (RSV; [1]) [µM]
O=C(NC1N=C(c2ccccc2)c2ccccc2NC1=O)c1cccc2c1C(=O)c1ccccc1-2 (stereo not shown) [Example 176, 9-Oxo-9H-fluorene-1-carboxylic acid (2-oxo-5-phenyl-2,3-dihydro-1H-benzo[e][1,4]diazepin-3-yl)-amide] |  |  | 99 | 4.3
O=C(NC1N=C(c2ccccc2)c2ccccc2NC1=O)c1c(F)cccc1F (stereo not shown) [Example 136, 2,6-Difluoro-N (2-oxo-5-phenyl-2,3-dihydro-1H-benzo[e][1,4]diazepin-3-yl)-benzamide] | 8.7 |  | >50 | 
O=C(NC1N=C(c2ccccc2)c2ccccc2NC1=O)c1ccccn1 (stereo not shown) [Example 172, Pyridine-2-carboxylic-acid (2-oxo-5-phenyl-2,3-dihydro-1H-benzo[e][1,4]diazepin-3-yl)-amide] |  |  | 137.8 | 6.4
CC(C)COC(=O)NC1N=C(c2ccccc2)c2ccccc2NC1=O (stereo not shown) [Example 183, (2-Oxo-5-phenyl-2,3-dihydro-1H-benzo[e][1,4]diazepin-3-yl)-carbamic acid isobutyl ester] |  |  | >50 | 9.88
Piperidine-1-carboxylic acid [5-(3-chloro-phenyl)-2-oxo-5-phenyl-2,3-dihydro-1H-benzo[e][1,4]diazepin-3-yl]-amide [Example 159] | 2 | > 100 | >100 | 
O=C(CC(O)c1ccccc1)NC1N=C(c2ccccc2)c2ccccc2NC1=O (stereo not shown) [Example 145, 3-Hydroxy-N-(2-oxo-5-phenyl-2,3-dihydro-1H-benzo[e][1,4]diazepin-3-yl)-3-phenyl-propionamide] |  | > 50 |  | 1.9
CCOc1ccc(C(C)=O)cc1C(=O)N[C@H]1N=C(c2ccccc2)c2ccccc2NC1=O [Example 76b, (S)-5-Acetyl-2-ethoxy-N-(2-oxo-5-phenyl-2,3-dihydro-1H-benzo[e][1,4]diazepin-3-yl)-benzamide] |  |  | >50 | 1.2
O=C(N[C@H]1N=C(c2ccccc2)c2ccccc2NC1=O)c1cc2ccccc2o1 [Example 180, (S)-Benzofuran-2-carboxylic acid (2-oxo-5-phenyl-2,3-dihydro-1H-benzo[e][1,4]diazepin-3-yl)-amide] |  |  | 37.1 | 2.6
O=C(NC1N=C(c2ccccc2)c2ccccc2NC1=O)c1cc(F)c(F)cc1F (stereo not shown) [Example 79a, 2,4,5-Trifluoro-N-(2-oxo-5-phenyl-2,3-dihydro-1H-benzo[e][1,4]diazopin-3-yl)-benzamide] | 8 |  | 65 | 
COc1ccc(OC)c(C(=O)NC2N=C(c3ccccc3)c3ccccc3NC2=O)c1 (stereo not shown) [Example 126, 2,5-Dimethoxy-N-(2-oxo-5-phenyl-2,3-dihydro-1H-benzo[e][1,4]diazepin-3-yl)-benzamide] |  |  | >50 | 5.4
Furan-2-carboxylic acid [5-(3-chloro-phenyl)-2-oxo-5-phenyl-2,3-dihydro-1H-benzo[e][1,4]diazepin-3-yl]-amide [Example 156] | 1.5 | 100 | 100 | 
Piperidine-1-carboxylic acid [5-(3-methoxy-phenyl)-2-oxo-5-phenyl-2,3-dihydro-1H-benzo[e][1,4]diazepin-3-yl]-amide [Example 166] | 5 | > 100 | >100 | 
Cyclohexanecarboxylic acid [5-(3-chloro-phenyl)-2-oxo-5-phenyl-2,3-dihydro-1H-benzo[e][1,4]diazepin-3-yl]-amide [Example 158] | 2 | 100 | >100 | 
Cc1cc(C(=O)NC2N=C(c3ccccc3)c3ccccc3NC2=O)oc1C (stereo not shown) [Example 152, 4,5-Dimethyl-furan-2-carboxylic acid (2-oxo-5-phenyl-2,3-dihydro-1H-benzo[e][1,4]diazepin-3-yl)amide] |  | > 100 | 100 | 0.3
O=C(N[C@H]1N=C(c2ccccc2)c2ccccc2NC1=O)c1cc(F)c(F)cc1F [Example 79b, (S)-2,4,5-Trifluoro-N-(2-oxo-5-phenyl-2,3-dihydro-1H-benzo[e][1,4]diazepin-3-yl)-benzamide] |  |  | >50 | 5.8
